Reference: PMC10033419, “Blocking NS3–NS4B interaction inhibits dengue virus in non-human primates” (Nature, 2023)
Where “and” joins values, the source holds several entries; their conditions need not be identical. Equal entries are not always repeated. Where two headings read alike, the source gives them in different places.

Key:
DENV-2 RL strain = test: Day 3 viraemia model, high viral inoculum (10^6 PFU); type: in vivo, AG129 mice
DENV-2/16681/eGFP = test: microbe, parasite or virus in culture; type: cell-based; conditions: Dengue virus, DENV2, Vero
[1] = system: DENV-2 Asian II Papua New Guinea; test: microbe, parasite or virus in culture; type: cell-based; conditions: Dengue virus, DENV2, Vero C1008
Description: (§1) A total of 20 DENV strains, representing the available genotypes within the four DENV serotypes, were used in the in vitro genotype panel, from which 19 viruses were described previously in ref. [3] and one additional virus, DENV-1/45AZ5 (ref. [54]), was added.
(§2) A potential toxic effect on host cells was tested in parallel, while omitting virus infection, using the MTS/PMS method (Promega) for Vero cells, or by high-content imaging for C6/36 cells, as described previously. […] RT–qPCR data were analysed using the QuantStudio 12K Flex software (v.1.2.3) or SDS v.1.2 Applied Biosystems software. Inhibition values for antiviral molecules were plotted using KaleidaGraph plotting software (v.4.03, Synergy Software).

DENV-4 G1 India = test: microbe, parasite or virus in culture; type: cell-based; conditions: Dengue virus, DENV4, Vero C1008
Description: as §1, §2

[2] = system: DENV-2 Cosmopolitan France - Toulon; test: microbe, parasite or virus in culture; type: cell-based; conditions: Dengue virus, DENV2, Vero C1008
Description: as §1, §2

[3] = Study 1 - 160222, 60 mg/kg/d, individual animals, listed as 64281802-AAA
[4] = Study 2 - 160510, 0,6 mg/kg/d, individual animals, listed as 64281802-AAA
[5] = Study 2 - 160510, 2 mg/kg/d, individual animals, listed as 64281802-AAA
[6] = Study 2 - 160510, 6 mg/kg/d, individual animals, listed as 64281802-AAA
[7] = Study 2 - 160510, 20 mg/kg/d, individual animals, listed as 64281802-AAA
[8] = Study 3 - 170410, 0,2 mg/kg/d, first group of 8, individual animals, listed as 64281802-AAA
[9] = Study 3 - 170410, 0,2 mg/kg/d, second group of 8, individual animals, listed as 64281802-AAA
[10] = Study 3 - 170410, 0,6 mg/kg/d, individual animals, listed as 64281802-AAA
[11] = Study 3 - 170410, 20 mg/kg/d, individual animals
[12] = two of three values below threshold

In the case of `COc1cc(N[C@H](C(=O)c2c[nH]c3ccc(OC(F)(F)F)cc23)c2ccc(Cl)cc2OC)cc(S(C)(=O)=O)c1` [JNJ-1802], the “Av Log 10 (average)” value (DENV-2 RL strain; Study 1 - 160222, 60 mg/kg/d, group average) is reported as 3.05, the “Av Log 10 (Ave/Med: median)” value (DENV-2 RL strain; Study 1 - 160222, 60 mg/kg/d, group median) is reported as 2.59 and the Copy number (DENV-2 RL strain; [3]) is reported as 3.93E+02 and 1.22E+04 and 1.55E+03 and 5.28E+03. The “Log 10 (copy number)” value (DENV-2 RL strain; [3]) was 2.59 and 4.09 and 3.19 and 3.72, the “Av Log 10 (average)” value (DENV-2 RL strain; Study 2 - 160510, 0,6 mg/kg/d, group average) was 4.52 and the “Av Log 10 (Ave/Med: median)” value (DENV-2 RL strain; Study 2 - 160510, 0,6 mg/kg/d, group median) was 4.66. The Copy number (DENV-2 RL strain; [4]) was 3.02E+04 and 4.20E+05 and 7.57E+04 and 6.60E+04 and 3.93E+02 and 1.74E+04 and 1.01E+05 and 3.12E+04, the “Log 10 (copy number)” value (DENV-2 RL strain; [4]) was 4.48 and 5.62 and 4.88 and 4.82 and 2.59 and 4.24 and 5.00 and 4.49 and the “Av Log 10 (average)” value (DENV-2 RL strain; Study 2 - 160510, 2 mg/kg/d, group average) was 4.07. The “Av Log 10 (Ave/Med: median)” value (DENV-2 RL strain; Study 2 - 160510, 2 mg/kg/d, group median) was 4.30, the Copy number (DENV-2 RL strain; [5]) was 2.06E+04 and 6.20E+04 and 1.87E+04 and 2.60E+04 and 3.93E+02 and 1.87E+05 and the “Log 10 (copy number)” value (DENV-2 RL strain; [5]) was 4.31 and 4.28 and 4.79 and 4.27 and 4.41 and 2.59 and 5.27. For the same molecule, the “Av Log 10 (average)” value (DENV-2 RL strain; Study 2 - 160510, 6 mg/kg/d, group average) was 3.78, the “Av Log 10 (Ave/Med: median)” value (DENV-2 RL strain; Study 2 - 160510, 6 mg/kg/d, group median) was 3.87 and the Copy number (DENV-2 RL strain; [6]) was 9.12E+03 and 5.17E+03 and 3.62E+04 and 5.97E+03 and 3.93E+02. The “Log 10 (copy number)” value (DENV-2 RL strain; [6]) was 3.96 and 3.71 and 4.56 and 4.11 and 3.78 and 2.59, the “Av Log 10 (average)” value (DENV-2 RL strain; Study 2 - 160510, 20 mg/kg/d, group average) was 2.83 and the “Av Log 10 (Ave/Med: median)” value (DENV-2 RL strain; Study 2 - 160510, 20 mg/kg/d, group median) was 2.59. For the same molecule, the Copy number (DENV-2 RL strain; [7]) was 1.05E+04 and 3.93E+02, the “Log 10 (copy number)” value (DENV-2 RL strain; [7]) was 4.02 and 2.59 and the “Av Log 10 (average)” value (DENV-2 RL strain; Study 3 - 170410, 0,2 mg/kg/d, first group of 8, group average) was 6.01. The “Av Log 10 (Ave/Med: median)” value (DENV-2 RL strain; Study 3 - 170410, 0,2 mg/kg/d, first group of 8, group median) was 6.07, the Copy number (DENV-2 RL strain; [8]) was 1.86E+06 and 1.20E+06 and 1.13E+06 and 8.80E+05 and 2.24E+05 and 2.37E+06 and the “Log 10 (copy number)” value (DENV-2 RL strain; [8]) was 6.27 and 6.08 and 6.05 and 5.94 and 5.35 and 6.38. The “Av Log 10 (average)” value (DENV-2 RL strain; Study 3 - 170410, 0,2 mg/kg/d, second group of 8, group average) was 5.85, the “Av Log 10 (Ave/Med: median)” value (DENV-2 RL strain; Study 3 - 170410, 0,2 mg/kg/d, second group of 8, group median) was 6.03 and the Copy number (DENV-2 RL strain; [9]) was 1.58E+06 and 7.37E+04 and 5.97E+06 and 8.67E+05 and 1.42E+06 and 1.06E+06 and 9.43E+04. For the same molecule, the “Log 10 (copy number)” value (DENV-2 RL strain; [9]) was 6.20 and 4.87 and 6.78 and 5.94 and 6.15 and 6.03 and 4.97, the “Av Log 10 (average)” value (DENV-2 RL strain; Study 3 - 170410, 0,6 mg/kg/d, group average) was 3.92 and the “Av Log 10 (Ave/Med: median)” value (DENV-2 RL strain; Study 3 - 170410, 0,6 mg/kg/d, group median) was 4.48. The Copy number (DENV-2 RL strain; [10]) was 3.45E+04 and 2.62E+04 and 3.90E+04 and 3.93E+02, the “Log 10 (copy number)” value (DENV-2 RL strain; [10]) was 5.16 and 4.86 and 4.54 and 4.42 and 4.59 and 2.59 and the “Av Log 10 (average)” value (DENV-2 RL strain; Study 3 - 170410, 20 mg/kg/d, group average) was 2.59. For the same molecule, the “Av Log 10 (Ave/Med: median)” value (DENV-2 RL strain; Study 3 - 170410, 20 mg/kg/d, group median) was 2.59, the Copy number (DENV-2 RL strain; [11]) was 3.93E+02 and the “Log 10 (copy number)” value (DENV-2 RL strain; [11]) was 2.59. For the same molecule, the Copy number (DENV-2 RL strain; mouse, in vivo, 6 mg/kg/day) was 1.28E+04, the EC50 (DENV-2/16681/eGFP; Vero with 50% HS, read-out: EC50, protein-binding-adjusted) was 1.4 nM and the EC90 (DENV-2/16681/eGFP; Vero with 50% HS, read-out: EC90, protein-binding-adjusted) was 4.8 ± 1.4 nM. It also gave an EC50 (DENV-2/16681/eGFP; Vero, mean ± s.d., read-out: EC50) of 0.059 ± 0.03 nM, an EC90 (DENV-2/16681/eGFP; Vero, read-out: EC90) of 0.161 ± 0.083 nM and an EC50 (DENV-2/16681/eGFP; two DENV-2 laboratory strains in Vero, Huh-7, C6/36, THP-1/DC-SIGN, read-out: mean EC50, range) of 0.059 to 1.24 nM. For the same molecule, the EC90 [1] was 0.19 ± 0.1 nM, the EC50 ([1]; two of two values below threshold) was under 0.04 nM and the EC90 (DENV-4 G1 India) was 0.762 ± 0.095 nM. For the same molecule, the EC50 (DENV-4 G1 India; [12]) was under 0.09 nM, the EC90 ([2]; one of three values below threshold) was 0.28 nM and the EC50 [2, 12] was under 0.0443 nM.
